Test results published in patent US20120041172A1, “METHOD FOR THE MANUFACTURE OF DEGARELIX” (Polypeptide Laboratories A/S, priority 2009, published 2012).
Non-standard residues stand in square brackets, D forms with d. Residues, ends and D or L forms follow the SMILES beside them. *: point of attachment. dPhe(4-NHCONH2) = NC(=O)Nc1ccc(C[C@@H](N)C(=O)O)cc1; Dihydroorotyl(S) = O=C1C[C@@H](C(=O)*)NC(=O)N1; dPhe(4-Cl) = N[C@H](Cc1ccc(Cl)cc1)C(=O)O; Phe(4-NH2) = Nc1ccc(C[C@H](N)C(=O)O)cc1; d2Nal = N[C@H](Cc1ccc2ccccc2c1)C(=O)O; Lys(iPr) = CC(C)NCCCC[C@H](N)C(=O)O; d3Pal = N[C@H](Cc1cccnc1)C(=O)O

Experiments:
[1] = Stability of degarelix in DBU/DMF and piperidine/DMF (Fmoc-removal conditions), HPLC; assay type: physicochemical; conditions: 20 h
Protocol: Stability of degarelix in DBU/DMF and piperidine/DMF. The stability of degarelix was tested under conditions corresponding to those used for removal of the Fmoc-group during SPPS. The hydroorotic group in the side chain of 4Aph(Hor), amino acid residue no. 5 in the sequence of degarelix, is known to be sensitive to base and rearrange to a hydantoinacetyl group. All SPPS procedures known to the inventors had been based on Boc-chemistry.
Samples of degarelix were dissolved in 20% piperidine/DMF; 2% DBU in DMF, and 2% DBU+5% water in DMF; respectively. The samples were analysed by HPLC after 20 h and the amount of the hydantoin analogue determined.
If 5% water was present, too (simulating wet DMF), the amount was increased to 7%.

[2] = Instability of the hydroorotic moiety under basic conditions (DCHA in wet 2-BuOH); assay type: physicochemical; conditions: 67 mM in wet 2-BuOH with 167 mM (2.5 eq) DCHA, 31° C, after 25 h
Protocol: The following experiment provided further proof of the instability of the hydrooroic moiety under basic conditions. Z-Ser(tBu)-4Aph(Hor)-D-4Aph(tBu-Cbm)-Leu-OH.DCHA (67 mM) was dissolved in wet 2-BuOH with 167 mM (2.5 eq) DCHA at 31° C. After 25 h, 1.3% of the hydantoin analogue and 0.3% of the hydrolysed intermediate had been formed.

Compound | amount of the hydantoin analogue formed ([1]; 2% DBU + 5% water in DMF (simulating wet DMF)) [%] | amount of the hydantoin analogue formed ([1]; 2% DBU in DMF) [%] | formation of the hydantoin analogue ([1]; 20% piperidine in DMF) | hydantoin analogue formed [2] [%] | hydrolysed intermediate formed [2] [%]
CC(=O)N[C@H](Cc1ccc2ccccc2c1)C(=O)N[C@H](Cc1ccc(Cl)cc1)C(=O)N[C@H](Cc1cccnc1)C(=O)N[C@@H](CO)C(=O)N[C@@H](Cc1ccc(NC(=O)[C@@H]2CC(=O)NC(=O)N2)cc1)C(=O)N[C@H](Cc1ccc(NC(N)=O)cc1)C(=O)N[C@@H](CC(C)C)C(=O)N[C@@H](CCCCNC(C)C)C(=O)N1CCC[C@H]1C(=O)N[C@H](C)C(N)=O [degarelix, Ac-D-2Nal-D-Phe(4Cl)-D-3 Pal-Ser-4Aph(Hor)-D-4Aph(Cbm)-Leu-ILys-Pro-D-Ala-NH2] (Ac-[d2Nal][dPhe(4-Cl)][d3Pal]S[Phe(4-NH2)](Dihydroorotyl(S))[dPhe(4-NHCONH2)]L[Lys(iPr)]P[dA]-NH2) | 7 | 1.8 | did not result in any formation of the hydantoin analogue | – | –
Z-Ser(tBu)-4Aph(Hor)-D-4Aph(tBu-Cbm)-Leu-OH.DCHA | – | – | – | 1.3 | 0.3
